These results are taken from patent publication US20090233931A1, “THERAPEUTIC COMPOUNDS” (priority 2008, published 2009).

The structures appear in SMILES notation.

This assay concerns lashes and adjacent hairs of glaucoma patients. Description: Eyelash/hair growth observed in glaucoma patients treated in one eye. Type of assay: in vivo, humans. The following applies: glaucoma patient treated in one eye only. The text has this:
In the course of treating patients having glaucoma, treatment may only be appropriate in one eye. […] The lash appearance on the lids of the treated eyes would have appeared quite attractive if it represented a bilateral phenomenon. As a result of its asymmetric nature, the long lashes on one side could be construed as disturbing from a cosmetic standpoint. A systemic examination was preformed as a result of the asymmetric phenomenon. It soon became apparent that this altered appearance was not an isolated finding. […] Definite differences could be identified to varying degrees in the lashes and adjacent hairs of all patients who were taking the drug on a unilateral basis for longer than 6 months.
The changes in the lashes were apparent on gross inspection in several patients once attention was focused on the issue. In those with light colored hair and lashes, the differences were only seen easily with the aid of the high magnification and lighting capabilities of the slit lamp biomicroscope. In the course of glaucoma follow-up examination, attention is generally immediately focused on the eye itself. As a result of the high power magnification needed only one eye is seen at a time and the eye is seen at a high enough power that the lashes are not in focus. […]

Regarding `CCNC(=O)CCC/C=C\C[C@@H]1[C@@H](/C=C/[C@@H](O)CCc2ccccc2)[C@H](O)C[C@@H]1O` [bimatoprost], the “lash appearance in treated eye versus non-treated eye” value was “longer, thicker, and fuller”.
